The source of these data is ChEMBL document CHEMBL3045935, “Benzoxepin derivatives: design, synthesis, and pharmacological evaluation with sedativehypnotic effect” (2012).

Assay [1] concerns Mus musculus. The assay is described as follows: Sedative-hypnotic activity in Mus musculus (mouse) assessed as increase in duration of phenobarbital-induced sleep at 19.6 to 42.6 mg/kg, ip incubated for 30 min prior to phenobarbital challenge relative to phenobarbital-treated mouse. The format is functional. The conditions noted are these: dose mg/kg 19.6-42.6; route intraperitoneal.

The test system of assay [2] is Mus musculus. The assay is described as follows: Sedative-hypnotic activity in Mus musculus (mouse) assessed as decrease in onset of phenobarbital-induced sleep at 19.6 to 42.6 mg/kg, ip incubated for 30 min prior to phenobarbital challenge relative to phenobarbital-treated mouse. The format is functional. The conditions noted are these: dose mg/kg 19.6-42.6; route intraperitoneal.

Consider `O=C1CCCOc2ccc(Cl)cc21`, for which the Time in assay [1] is listed as 59.5 min; in assay [2] it was 34.5 min.
As to `CN(C)CC1CCOc2ccc(Cl)cc2C1=O` (configuration not stated), the Time in assay [1] is on record as 61.3 min; in assay [2], 34 min.
Taken in the same sequence, the figures for `O=C1c2cc(Cl)ccc2OCCC1CN1CCCCC1` (configuration not stated) were 99.3 min and 24.5 min.
As for `CN1CCN(CC2CCOc3ccc(Cl)cc3C2=O)CC1` (configuration not stated), the values for the Time in assay [1] and in assay [2] were 92.35 min and 38.8 min, respectively.
Take `O=C1c2cc(Cl)ccc2OCCC1CN1CCN(c2ccccc2Cl)CC1` (configuration not stated): the Time in assay [1] was found to be 45.25 min; in assay [2] it was 45.5 min.
Taken in the same sequence, the figures for `O=C1c2cc(Cl)ccc2OCCC1CN1CCOCC1` (configuration not stated) were 75.25 min and 40.8 min.
In the case of `O=C1/C(=C\c2ccccc2)CCOc2ccc(Cl)cc21`, the Time in assay [1] was 84.3 min; in assay [2], 18 min.
On the same counts, the results for `O=C1/C(=C\c2ccc(F)cc2)CCOc2ccc(Cl)cc21` are 103.15 min and 16.5 min.
Regarding `O=C1/C(=C\c2ccc(Cl)cc2)CCOc2ccc(Cl)cc21`, the results for the Time in assay [1] and in assay [2] were 105.5 min and 15 min, respectively.
Taken in the same sequence, the figures for `COc1ccc(/C=C2/CCOc3ccc(Cl)cc3C2=O)cc1` were 79.4 min and 17.6 min.
On the same counts, the results for `O=C1c2cc(Cl)ccc2OCCC1Br` (configuration not stated) are 39.15 min and 47 min.
On the same counts, the results for `CCC1(c2ccccc2)C(=O)NC(=O)N(C2CCOc3ccc(Cl)cc3C2=O)C1=O` (configuration not stated) are 123.25 min and 21.5 min.
On to `O=C1CC2CCOc3ccc(Cl)cc3C2=NN1c1ccccc1` (configuration not stated), for which the figures for the Time in assay [1] and in assay [2] were 100.15 min and 20 min, respectively.
Taken in the same sequence, the figures for `O=C1CC2CCOc3ccc(Cl)cc3C2=NN1c1ccc(Cl)cc1` (configuration not stated) were 42.15 min and 49.5 min.
In the case of `COc1ccc(N2N=C3c4cc(Cl)ccc4OCCC3CC2=O)cc1` (configuration not stated), the values for the Time in assay [1] and in assay [2] were 38.45 min and 42.5 min, respectively.
On to `CCC1(c2ccccc2)C(=O)NC(=O)NC1=O` [PHENOBARBITAL], for which the Time amounted to 100.5 min in assay [1] and 46.8 min in assay [2].
